This assay concerns the target recombinant human SAE enzyme (Homo sapiens (Human), UniProt Q9UBT2). The assay can be described thus: SAE HTRF enzyme assay. Particulars: for inhibition at 0.111 µM: read-out: Percent Inhibition. The assay is classed as biochemical. The procedure, abridged: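 Sumoylation of Ubc9-GST by SAE was followed at low ATP (0.5 μM), pH 7.5, 24° C. for 105 min. Product was detected by HTRF with antibody pairs against Flag and GST tags.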
On the technique in general: In TR-FRET formats the signal depends on donor and acceptor labels being close together.

Setting [1] is: SAE inhibition at compound concentration 0.111 μM.
Where [2] appears, read: SAE inhibition, class symbols, legend in nM.

Where two headings read alike, the source gives them in different places. Some results are limits rather than exact numbers.

These results are taken from patent publication US10780090B2, “Heteroaryl compounds useful as inhibitors of SUMO activating enzyme” (Millennium Pharmaceuticals, Inc., priority 2014, dated 2020).

What is called IC50 is the midpoint of a concentration-inhibition curve. Broadly, the inhibition is the change of the read-out against control, counted positive when it falls.

Chain of recombinant human SAE enzyme (Q9UBT2 whole entry): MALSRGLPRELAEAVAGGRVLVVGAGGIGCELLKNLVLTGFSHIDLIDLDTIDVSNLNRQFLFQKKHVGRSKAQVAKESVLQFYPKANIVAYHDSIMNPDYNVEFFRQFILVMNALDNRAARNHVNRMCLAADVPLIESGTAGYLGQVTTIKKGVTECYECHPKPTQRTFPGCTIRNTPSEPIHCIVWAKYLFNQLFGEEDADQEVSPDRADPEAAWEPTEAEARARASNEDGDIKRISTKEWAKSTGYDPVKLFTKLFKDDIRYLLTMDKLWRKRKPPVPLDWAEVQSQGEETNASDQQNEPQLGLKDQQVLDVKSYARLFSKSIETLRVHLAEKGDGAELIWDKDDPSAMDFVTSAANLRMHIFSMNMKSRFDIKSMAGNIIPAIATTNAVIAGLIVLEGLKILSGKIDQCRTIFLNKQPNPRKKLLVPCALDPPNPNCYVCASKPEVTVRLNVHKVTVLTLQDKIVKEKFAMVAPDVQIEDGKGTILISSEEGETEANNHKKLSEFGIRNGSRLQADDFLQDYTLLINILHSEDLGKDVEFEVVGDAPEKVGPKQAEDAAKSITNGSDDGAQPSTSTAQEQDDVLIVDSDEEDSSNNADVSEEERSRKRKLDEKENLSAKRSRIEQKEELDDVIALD
Chain of recombinant human SAE enzyme (Q9UBE0 whole entry partner): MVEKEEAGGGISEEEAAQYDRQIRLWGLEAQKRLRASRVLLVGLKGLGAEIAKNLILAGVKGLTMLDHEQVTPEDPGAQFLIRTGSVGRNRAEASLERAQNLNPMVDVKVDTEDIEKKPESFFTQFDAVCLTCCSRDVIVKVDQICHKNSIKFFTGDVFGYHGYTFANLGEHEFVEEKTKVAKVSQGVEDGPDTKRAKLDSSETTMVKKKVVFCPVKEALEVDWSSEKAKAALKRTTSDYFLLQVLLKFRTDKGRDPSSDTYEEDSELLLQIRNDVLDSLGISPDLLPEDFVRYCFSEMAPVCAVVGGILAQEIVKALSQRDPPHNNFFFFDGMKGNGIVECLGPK

On to `NS(=O)(=O)OC[C@H]1C[C@@H](Nc2ncncc2C(=O)c2cc([C@@H]3NCCc4ccc(Br)cc43)c(Cl)s2)[C@H](O)[C@@H]1O` (mixture of isomers) [I-259, [(1R,2R,3S,4R)-4-{[5-({4-[(1R)-7-bromo-1,2,3,4-tetrahydroisoquinolin-1-yl]-5-chloro-2-thienyl}carbonyl)pyrimidin-4-yl]amino}-2,3-dihydroxycyclopentyl]methyl sulfamate and [(1R,2R,3S,4R)-4-{[5-({4-[(1S)-7-bromo-1,2,3,4-tetrahydroisoquinolin-1-yl]-5-chloro-2-thienyl}carbonyl)pyrimidin-4-yl]amino}-2,3-dihydroxycyclopentyl]methyl sulfamate], for which the “Percent Inhibition” value (Concentration 0.111 μM) came to 99. Also, the IC50 (class symbols A/B/C) is less than 10 nM.
As to `Cc1sc(C(=O)c2cncnc2N[C@@H]2C[C@H](COS(N)(=O)=O)[C@@H](O)C2)cc1[C@@H]1OCOc2ccccc21` (single isomer, unassigned) [I-280b, [(1R,2S,4R)-4-{[5-({4-[(4R)-4H-1,3-benzodioxin-4-yl]-5-methyl-2-thienyl}carbonyl)pyrimidin-4-yl]amino}-2-hydroxycyclopentyl]methyl sulfamate or [(1R,2S,4R)-4-{[5-({4-[(4S)-4H-1,3-benzodioxin-4-yl]-5-methyl-2-thienyl}carbonyl)pyrimidin-4-yl]amino}-2-hydroxycyclopentyl]methyl sulfamate], the “Percent Inhibition” value under setting [1] is recorded as 100%. Also, the concentration for half-maximal inhibition (IC50) under setting [2] was less than 10 nM.
On to `NS(=O)(=O)OC[C@H]1C[C@@H](Nc2ncncc2C(=O)c2cc([C@H](O)c3cccc(Cl)c3F)c(Cl)s2)C[C@@H]1O` (mixture of isomers) [I-40, [(1R,2S,4R)-4-{[5-({5-chloro-4-[(R)-(3-chloro-2-fluorophenyl)(hydroxy)methyl]-2-thienyl}carbonyl)pyrimidin-4-yl]amino}-2-hydroxycyclopentyl]methyl sulfamate and [(1R,2S,4R)-4-{[5-({5-chloro-4-[(S)-(3-chloro-2-fluorophenyl)(hydroxy)methyl]-2-thienyl}carbonyl)pyrimidin-4-yl]amino}-2-hydroxycyclopentyl]methyl sulfamate], for which, for the setting “Concentration 0.111 μM”, the “Percent Inhibition” value is 96. For the setting “class symbols A/B/C”, the half-inhibitory concentration (IC50) is less than 10 nM.
For `Cc1sc(C(=O)c2cncnc2N[C@@H]2C[C@H](COS(N)(=O)=O)[C@@H](OC(=O)c3cccc(COP(=O)(O)O)c3)C2)cc1[C@@H]1OCCc2ccc(Cl)cc21` [I-345, (1S,2R,4R)-4-{[5-({4-[(1R)-7-chloro-3,4-dihydro-1H-isochromen-1-yl]-5-methyl-2-thienyl}carbonyl)pyrimidin-4-yl]amino}-2-[(sulfamoyloxy)methyl]cyclopentyl 3-[(phosphonooxy)methyl]benzoate], the inhibition at 0.111 µM under setting [1] was found to be 5%. Further, under setting [2], the 50% inhibitory concentration (IC50) lay in the range of 100 to 1000 nM.
Turning to `NS(=O)(=O)OC[C@H]1C[C@@H](Nc2ncncc2C(=O)c2cc(Cc3cccc(Br)n3)c(Cl)s2)C[C@@H]1O` [I-46, [(1R,2S,4R)-4-{[5-({4-[(6-bromopyridin-2-yl)methyl]-5-chloro-2-thienyl}carbonyl)pyrimidin-4-yl]amino}-2-hydroxycyclopentyl]methyl sulfamate], the inhibition at 0.111 µM (Concentration 0.111 μM) was 98%.
`C[C@@]1(c2csc(C(=O)c3cncnc3N[C@@H]3C[C@H](COS(N)(=O)=O)[C@@H](O)C3)c2)OCCc2ccc(Cl)cc21` (mixture of isomers) [I-317, [(1R,2S,4R)-4-{[5-({4-[(1R)-7-chloro-1-methyl-3,4-dihydro-1H-isochromen-1-yl]-2-thienyl}carbonyl)pyrimidin-4-yl]amino}-2-hydroxycyclopentyl]methyl sulfamate and [(1R,2S,4R)-4-{[5-({4-[(1S)-7-chloro-1-methyl-3,4-dihydro-1H-isochromen-1-yl]-2-thienyl}carbonyl)pyrimidin-4-yl]amino}-2-hydroxycyclopentyl]methyl sulfamate]: the “Percent Inhibition” value under setting [1] was found to be 97%. The IC50 under setting [2] is less than 10 nM.
On to `NS(=O)(=O)OC[C@H]1C[C@@H](Nc2ncncc2C(=O)c2cc(CN3CC=CCC3)cs2)C[C@@H]1O` [I-204, {(1R,2S,4R)-4-[(5-{[4-(3,6-dihydropyridin-1(2H)-ylmethyl)-2-thienyl]carbonyl}pyrimidin-4-yl)amino]-2-hydroxycyclopentyl}methyl sulfamate], for which the inhibition at 0.111 µM (Concentration 0.111 μM) turned out to be 52%. The IC50 (class symbols A/B/C) fell in the range of 10 to 100 nM.
With `NS(=O)(=O)OC[C@H]1C[C@@H](Nc2ncncc2C(=O)c2cc(CN3CC=CC3)cs2)C[C@@H]1O` [I-219, {(1R,2S,4R)-4-[(5-{[4-(2,5-dihydro-1H-pyrrol-1-ylmethyl)-2-thienyl]carbonyl}pyrimidin-4-yl)amino]-2-hydroxycyclopentyl}methyl sulfamate], the inhibition at 0.111 µM (Concentration 0.111 μM) was determined as 32%. Also, where the note is “class symbols A/B/C”, the IC50 lay within 100 to 1000 nM.
As to `CN1CCc2ccc(Cl)cc2[C@@H]1c1csc(C(=O)c2cncnc2N[C@@H]2C[C@H](COS(N)(=O)=O)[C@@H](O)C2)c1` (single isomer, unassigned) [I-307b, [(1R,2S,4R)-4-{[5-({4-[(1R)-7-chloro-2-methyl-1,2,3,4-tetrahydroisoquinolin-1-yl]-2-thienyl}carbonyl)pyrimidin-4-yl]amino}-2-hydroxycyclopentyl]methyl sulfamate or [(1R,2S,4R)-4-{[5-({4-[(1S)-7-chloro-2-methyl-1,2,3,4-tetrahydroisoquinolin-1-yl]-2-thienyl}carbonyl)pyrimidin-4-yl]amino}-2-hydroxycyclopentyl]methyl sulfamate], the “Percent Inhibition” value under setting [1] amounted to 97%. For the same molecule, under setting [2], the 50% inhibitory concentration (IC50) was less than 10 nM.
On to `NS(=O)(=O)OC[C@H]1C[C@@H](Nc2ncncc2C(=O)c2cc([C@@H]3NCCc4ccc(Cl)cc43)c(Cl)s2)[C@H](O)[C@@H]1O` (single isomer, unassigned) [I-249a, [(1R,2R,3S,4R)-4-{[5-({5-chloro-4-[(1R)-7-chloro-1,2,3,4-tetrahydroisoquinolin-1-yl]-2-thienyl}carbonyl)pyrimidin-4-yl]amino}-2,3-dihydroxycyclopentyl]methyl sulfamate or [(1R,2R,3S,4R)-4-{[5-({5-chloro-4-[(1S)-7-chloro-1,2,3,4-tetrahydroisoquinolin-1-yl]-2-thienyl}carbonyl)pyrimidin-4-yl]amino}-2,3-dihydroxycyclopentyl]methyl sulfamate], for which, where the note is “Concentration 0.111 μM”, the “Percent Inhibition” value was determined as 100. Further, the IC50 (class symbols A/B/C) is less than 10 nM.
For `NS(=O)(=O)OC[C@H]1C[C@@H](Nc2ncncc2C(=O)c2cc(Cc3cccc(Br)c3)c(Cl)s2)[C@H](O)[C@@H]1O` [I-76, {(1R,2R,3S,4R)-4-[(5-{[4-(3-bromobenzyl)-5-chloro-2-thienyl]carbonyl}pyrimidin-4-yl)amino]-2,3-dihydroxycyclopentyl}methyl sulfamate], the inhibition at 0.111 µM (Concentration 0.111 μM) was 99%. Where the note is “class symbols A/B/C”, the half-maximal inhibitory concentration (IC50) is less than 10 nM.
On to `NS(=O)(=O)OC[C@H]1C[C@@H](Nc2ncncc2C(=O)c2cc(C3OCCc4ccc(Cl)cc43)cs2)C[C@@H]1O` (single isomer, unassigned) [I-261b, [(1R,2S,4R)-4-{[5-({4-[(1R)-7-chloro-3,4-dihydro-1H-isochromen-1-yl]-2-thienyl}carbonyl)pyrimidin-4-yl]amino}-2-hydroxycyclopentyl]methyl sulfamate or [(1R,2S,4R)-4-{[5-({4-[(1S)-7-chloro-3,4-dihydro-1H-isochromen-1-yl]-2-thienyl}carbonyl)pyrimidin-4-yl]amino}-2-hydroxycyclopentyl]methyl sulfamate], for which, under “Concentration 0.111 μM”, the “Percent Inhibition” value is listed as 99. Moreover, the half-inhibitory concentration (IC50) (class symbols A/B/C) is less than 10 nM.
